Experimental data from PubChem BioAssay (NCI).
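A five-concentration, 48-hour dose response in 96-well plates underlies each endpoint, interpolated linearly between surrounding concentrations. TGI: total growth inhibition.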

Legend:
Experiment in all cases: NCI tumour cell line growth inhibition, 48 h
786-0 renal = system: 786-0 renal
NCI-H226 lung = system: NCI-H226 lung
SK-OV-3 ovarian = system: SK-OV-3 ovarian
HT29 colon = system: HT29 colon
SW-620 colon = system: SW-620 colon
OVCAR-3 ovarian = system: OVCAR-3 ovarian
EKVX NSCLC = system: EKVX NSCLC
U251 CNS = system: U251 CNS
SK-MEL-28 melanoma = system: SK-MEL-28 melanoma
UACC-62 melanoma = system: UACC-62 melanoma
TK-10 renal = system: TK-10 renal
KM12 colon = system: KM12 colon
SF-539 CNS = system: SF-539 CNS
SR leukemia = system: SR leukemia
OVCAR-4 ovarian = system: OVCAR-4 ovarian
RPMI-8226 leukemia = system: RPMI-8226 leukemia
SK-MEL-5 melanoma = system: SK-MEL-5 melanoma
SNB-75 CNS = system: SNB-75 CNS

Compound	TGI (786-0 renal)	TGI (NCI-H226 lung)	TGI (SK-OV-3 ovarian)	TGI (HT29 colon)	TGI (SW-620 colon)	TGI (OVCAR-3 ovarian)	TGI (EKVX NSCLC)	TGI (U251 CNS)	TGI (SK-MEL-28 melanoma)	TGI (UACC-62 melanoma)	TGI (TK-10 renal)	TGI (KM12 colon)	TGI (SF-539 CNS)	TGI (SR leukemia)	TGI (OVCAR-4 ovarian)	TGI (RPMI-8226 leukemia)	TGI (SK-MEL-5 melanoma)	TGI (SNB-75 CNS)
C=CCCCN1CCCC(C)C1=S (stereo not given)	> 100 µM	> 100 µM	> 100 µM	> 100 µM	> 100 µM	> 100 µM	> 100 µM	> 100 µM	> 100 µM	> 100 µM	> 100 µM	> 100 µM	> 100 µM	> 100 µM	> 100 µM	> 100 µM	> 100 µM	> 100 µM
N#Cc1ccc(Oc2ccccc2)cc1C#N	> 100 µM	> 100 µM	> 100 µM	> 100 µM	–	> 100 µM	> 100 µM	> 100 µM	> 100 µM	> 100 µM	> 100 µM	> 100 µM	> 100 µM	49.7 µM	> 100 µM	> 100 µM	> 100 µM	> 100 µM
C(=C\C(Sc1ccccc1)c1ccccc1)/NNC1=NC(c2ccccc2)C(c2ccccc2)=NN1 (stereo not given)	> 100 µM	> 100 µM	> 100 µM	35.4 µM	> 100 µM	> 100 µM	> 100 µM	> 100 µM	> 100 µM	> 100 µM	> 100 µM	> 100 µM	> 100 µM	77.7 µM	> 100 µM	45.5 µM	> 100 µM	> 100 µM
c1ccc2c(c1)Cc1c(Cc3csc4ccccc34)ccc3cccc-2c13	> 100 µM	–	–	> 100 µM	> 100 µM	> 100 µM	> 100 µM	> 100 µM	> 100 µM	> 100 µM	–	> 100 µM	> 100 µM	–	> 100 µM	> 100 µM	> 100 µM	> 100 µM
CC1(C)Cc2c(oc3ncnc(N)c23)CS1	> 100 µM	> 100 µM	> 100 µM	> 100 µM	> 100 µM	> 100 µM	> 100 µM	> 100 µM	–	> 100 µM	–	> 100 µM	> 100 µM	> 100 µM	> 100 µM	> 100 µM	> 100 µM	> 100 µM
O=C(CC1C(=O)Nc2ccccc2S1(=O)=O)Nc1ccc(Cl)cc1 (stereo not given)	38.7 µM	> 100 µM	–	> 100 µM	> 100 µM	39.4 µM	–	34 µM	74.5 µM	> 100 µM	54.5 µM	–	29.7 µM	30.1 µM	77.2 µM	29.6 µM	59.1 µM	37.6 µM
COc1ccc(OC)c(/C=C2\CCc3ccccc3C2=O)c1	13.8 µM	18.6 µM	18.8 µM	16.7 µM	15.4 µM	7.67 µM	22.7 µM	14.4 µM	28.1 µM	5.39 µM	30.3 µM	12.5 µM	9.95 µM	–	22.9 µM	19.6 µM	12.4 µM	3.52 µM
